Results taken from PMC9829398 (Plant Biotechnology Journal, 2022).
Entries after “also recorded” stand apart in the source; their conditions may differ.

How the values were obtained:
THE1‐CD = assay: THE1-CD kinase activity (autophosphorylation); assay type: biochemical, Arabidopsis thaliana; conditions: 5 μM
Ralstonia solanacearum [1] = assay type: in vivo; conditions: Arabidopsis seedlings pretreated with 5 μM, 4 days after inoculation
Ralstonia solanacearum [2] = assay type: in vivo, tobacco; conditions: roots pretreated twice with 3 mL of 5 μM
Ralstonia solanacearum [3] = assay type: in vivo, tobacco; conditions: 5 μM irrigated twice two days after inoculation
tobacco roots = assay: RNA-seq of tobacco roots (DEGs, GO and KEGG classification and enrichment); assay type: in vivo
FER‐CD = FER‐CD (Arabidopsis thaliana, UniProt Q9SCZ4); assay: biochemical
tobacco = assay: Growth of tobacco (shoot and root fresh weight, Day 25); conditions: 5 μM irrigated twice
[4] = KEGG ko00040 Pentose and glucuronate interconversions
[5] = KEGG ko00052 Galactose metabolism
[6] = KEGG ko00062 Fatty acid elongation
[7] = KEGG ko00071 Fatty acid degradation
[8] = KEGG ko00073 Cutin, suberine and wax biosynthesis
[9] = KEGG ko00100 Steroid biosynthesis
[10] = KEGG ko00250 Alanine, aspartate and glutamate metabolism
[11] = KEGG ko00270 Cysteine and methionine metabolism
[12] = KEGG ko00290 Valine, leucine and isoleucine biosynthesis
[13] = KEGG ko00330 Arginine and proline metabolism
[14] = KEGG ko00350 Tyrosine metabolism
[15] = KEGG ko00360 Phenylalanine metabolism
[16] = KEGG ko00410 beta-Alanine metabolism
[17] = KEGG ko00430 Taurine and hypotaurine metabolism
[18] = KEGG ko00460 Cyanoamino acid metabolism
[19] = KEGG ko00480 Glutathione metabolism
[20] = KEGG ko00500 Starch and sucrose metabolism
[21] = KEGG ko00511 Other glycan degradation
[22] = KEGG ko00520 Amino sugar and nucleotide sugar metabolism
[23] = KEGG ko00531 Glycosaminoglycan degradation
[24] = KEGG ko00561 Glycerolipid metabolism
[25] = KEGG ko00564 Glycerophospholipid metabolism
[26] = KEGG ko00590 Arachidonic acid metabolism
[27] = KEGG ko00591 Linoleic acid metabolism
[28] = KEGG ko00592 alpha-Linolenic acid metabolism
[29] = KEGG ko00603 Glycosphingolipid biosynthesis - globo series
[30] = KEGG ko00604 Glycosphingolipid biosynthesis - ganglio series
[31] = KEGG ko00650 Butanoate metabolism
[32] = KEGG ko00730 Thiamine metabolism
[33] = KEGG ko00760 Nicotinate and nicotinamide metabolism
[34] = KEGG ko00770 Pantothenate and CoA biosynthesis
[35] = KEGG ko00904 Diterpenoid biosynthesis
[36] = KEGG ko00905 Brassinosteroid biosynthesis
[37] = KEGG ko00906 Carotenoid biosynthesis
[38] = KEGG ko00908 Zeatin biosynthesis
[39] = KEGG ko00909 Sesquiterpenoid and triterpenoid biosynthesis
[40] = KEGG ko00910 Nitrogen metabolism
[41] = KEGG ko00940 Phenylpropanoid biosynthesis
[42] = KEGG ko00941 Flavonoid biosynthesis
[43] = KEGG ko00950 Isoquinoline alkaloid biosynthesis
[44] = KEGG ko00960 Tropane, piperidine and pyridine alkaloid biosynthesis
[45] = KEGG ko00980 Metabolism of xenobiotics by cytochrome P450
[46] = KEGG ko00982 Drug metabolism - cytochrome P450
[47] = KEGG ko01040 Biosynthesis of unsaturated fatty acids
[48] = KEGG ko03320 PPAR signaling pathway
[49] = KEGG ko04010 MAPK signaling pathway
[50] = KEGG ko04011 MAPK signaling pathway - yeast
[51] = KEGG ko04020 Calcium signaling pathway
[52] = KEGG ko04022 cGMP-PKG signaling pathway
[53] = KEGG ko04075 Plant hormone signal transduction
[54] = KEGG ko04140 Regulation of autophagy
[55] = KEGG ko04211 Longevity regulating pathway
[56] = KEGG ko04212 Longevity regulating pathway - worm
[57] = KEGG ko04370 VEGF signaling pathway
[58] = KEGG ko04380 Osteoclast differentiation
[59] = KEGG ko04614 Renin-angiotensin system
[60] = KEGG ko04626 Plant-pathogen interaction
[61] = KEGG ko04650 Natural killer cell mediated cytotoxicity
[62] = KEGG ko04660 T cell receptor signaling pathway
[63] = KEGG ko04662 B cell receptor signaling pathway
[64] = KEGG ko04712 Circadian rhythm - plant
[65] = KEGG ko04720 Long-term potentiation
[66] = KEGG ko04723 Retrograde endocannabinoid signaling
[67] = KEGG ko04724 Glutamatergic synapse
[68] = KEGG ko04810 Regulation of actin cytoskeleton
[69] = KEGG ko04920 Adipocytokine signaling pathway
[70] = KEGG ko04921 Oxytocin signaling pathway
[71] = KEGG ko04922 Glucagon signaling pathway
[72] = KEGG ko04974 Protein digestion and absorption
[73] = KEGG ko04975 Fat digestion and absorption
[74] = tobacco roots, 5 μM irrigated twice, coregulated genes, vs DMSO

Chain of FER‐CD (Q9SCZ4 469-895): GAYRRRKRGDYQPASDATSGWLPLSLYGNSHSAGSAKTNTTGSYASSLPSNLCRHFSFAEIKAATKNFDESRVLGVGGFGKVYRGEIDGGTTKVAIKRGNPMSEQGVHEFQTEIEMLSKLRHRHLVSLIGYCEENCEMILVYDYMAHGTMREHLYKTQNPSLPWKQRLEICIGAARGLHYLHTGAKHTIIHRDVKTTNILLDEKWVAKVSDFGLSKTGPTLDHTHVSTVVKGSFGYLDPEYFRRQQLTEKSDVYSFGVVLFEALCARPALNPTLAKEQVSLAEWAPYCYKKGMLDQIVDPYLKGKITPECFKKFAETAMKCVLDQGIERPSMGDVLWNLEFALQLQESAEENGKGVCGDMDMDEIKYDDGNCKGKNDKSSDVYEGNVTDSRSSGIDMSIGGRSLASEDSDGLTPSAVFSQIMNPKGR

Q: Which results are given for `O=C(O)c1cc(N(Cc2ccccc2O)Cc2cc(O)ccc2O)ccc1O` [Lavendustin A]?
A: Inhibition rate of THE1-CD kinase activity (THE1‐CD): lower than 55%; Cotyledon bleaching caused by R. solanacearum (Ralstonia solanacearum [1]): effectively prevented the cotyledon bleaching; Control of tobacco bacterial wilt (Ralstonia solanacearum [2]): alleviated tobacco bacterial wilt; also recorded: alleviated soil‐borne diseases; Effect on established tobacco bacterial wilt (Ralstonia solanacearum [3]): could not completely prevent the occurrence of the diseases or cure already diseased plants; Enrichment_score (tobacco roots; [4]): 1.762; ListHits (tobacco roots; [4]): 11; Enrichment_score (tobacco roots; [5]): 3.118; ListHits (tobacco roots; [5]): 9; Enrichment_score (tobacco roots; [6]): 4.058; ListHits (tobacco roots; [6]): 8; Enrichment_score (tobacco roots; [7]): 0.9908; ListHits (tobacco roots; [7]): 2; Enrichment_score (tobacco roots; [8]): 6.683; ListHits (tobacco roots; [8]): 16; Enrichment_score (tobacco roots; [9]): 3.5933; ListHits (tobacco roots; [9]): 7; Enrichment_score (tobacco roots; [10]): 2.602; ListHits (tobacco roots; [10]): 8; Enrichment_score (tobacco roots; [11]): 1.358; ListHits (tobacco roots; [11]): 8; Enrichment_score (tobacco roots; [12]): 1.495; ListHits (tobacco roots; [12]): 2; Enrichment_score (tobacco roots; [13]): 2.996; ListHits (tobacco roots; [13]): 9; Enrichment_score (tobacco roots; [14]): 1.721; ListHits (tobacco roots; [14]): 4; Enrichment_score (tobacco roots; [15]): 3.551; ListHits (tobacco roots; [15]): 8; Enrichment_score (tobacco roots; [16]): 1.826; ListHits (tobacco roots; [16]): 6; Enrichment_score (tobacco roots; [17]): 1.704; ListHits (tobacco roots; [17]): 1; Enrichment_score (tobacco roots; [18]): 2.209; ListHits (tobacco roots; [18]): 7; Enrichment_score (tobacco roots; [19]): 1.785; ListHits (tobacco roots; [19]): 8; Enrichment_score (tobacco roots; [20]): 2.489; ListHits (tobacco roots; [20]): 34; Enrichment_score (tobacco roots; [21]): 1.253; ListHits (tobacco roots; [21]): 1; Enrichment_score (tobacco roots; [22]): 1.791; ListHits (tobacco roots; [22]): 14; Enrichment_score (tobacco roots; [23]): 1.152; ListHits (tobacco roots; [23]): 1; Enrichment_score (tobacco roots; [24]): 2.272; ListHits (tobacco roots; [24]): 8; Enrichment_score (tobacco roots; [25]): 1.826; ListHits (tobacco roots; [25]): 9; Enrichment_score (tobacco roots; [26]): 1.2911; ListHits (tobacco roots; [26]): 1; Enrichment_score (tobacco roots; [27]): 6.087; ListHits (tobacco roots; [27]): 6; Enrichment_score (tobacco roots; [28]): 4.111; ListHits (tobacco roots; [28]): 11; Enrichment_score (tobacco roots; [29]): 4.485; ListHits (tobacco roots; [29]): 2; Enrichment_score (tobacco roots; [30]): 4.734; ListHits (tobacco roots; [30]): 1; Enrichment_score (tobacco roots; [31]): 1.671; ListHits (tobacco roots; [31]): 2; Enrichment_score (tobacco roots; [32]): 1.522; ListHits (tobacco roots; [32]): 1; Enrichment_score (tobacco roots; [33]): 4.438; ListHits (tobacco roots; [33]): 5; Enrichment_score (tobacco roots; [34]): 1.397; ListHits (tobacco roots; [34]): 2; Enrichment_score (tobacco roots; [35]): 1.0025; ListHits (tobacco roots; [35]): 2; Enrichment_score (tobacco roots; [36]): 2.84; ListHits (tobacco roots; [36]): 2; Enrichment_score (tobacco roots; [37]): 1.079; ListHits (tobacco roots; [37]): 2; Enrichment_score (tobacco roots; [38]): 1.973; ListHits (tobacco roots; [38]): 5; Enrichment_score (tobacco roots; [39]): 1.739; ListHits (tobacco roots; [39]): 2; Enrichment_score (tobacco roots; [40]): 6.015; ListHits (tobacco roots; [40]): 12; Enrichment_score (tobacco roots; [41]): 5.314; ListHits (tobacco roots; [41]): 58; Enrichment_score (tobacco roots; [42]): 1.173; ListHits (tobacco roots; [42]): 3; Enrichment_score (tobacco roots; [43]): 2.794; ListHits (tobacco roots; [43]): 4; Enrichment_score (tobacco roots; [44]): 4.058; ListHits (tobacco roots; [44]): 6; Enrichment_score (tobacco roots; [45]): 2.166; ListHits (tobacco roots; [45]): 6; Enrichment_score (tobacco roots; [46]): 2.749; ListHits (tobacco roots; [46]): 8; Enrichment_score (tobacco roots; [47]): 1.121; ListHits (tobacco roots; [47]): 2; Enrichment_score (tobacco roots; KEGG ko02010 ABC transporters): 2.282; ListHits (tobacco roots; KEGG ko02010 ABC transporters): 3; Enrichment_score (tobacco roots; [48]): 2.72; ListHits (tobacco roots; [48]): 3; Enrichment_score (tobacco roots; [49]): 1.195; ListHits (tobacco roots; [49]): 3; Enrichment_score (tobacco roots; [50]): 1.3634; ListHits (tobacco roots; [50]): 4; Enrichment_score (tobacco roots; [51]): 1.535; ListHits (tobacco roots; [51]): 4; Enrichment_score (tobacco roots; [52]): 1.209; ListHits (tobacco roots; [52]): 4; Enrichment_score (tobacco roots; [53]): 1.797; ListHits (tobacco roots; [53]): 28; Enrichment_score (tobacco roots; [54]): 1.598; ListHits (tobacco roots; [54]): 3; Enrichment_score (tobacco roots; KEGG ko04146 Peroxisome): 1.462; ListHits (tobacco roots; KEGG ko04146 Peroxisome): 7; Enrichment_score (tobacco roots; [55]): 1.677; ListHits (tobacco roots; [55]): 5; Enrichment_score (tobacco roots; [56]): 1.175; ListHits (tobacco roots; [56]): 4; Enrichment_score (tobacco roots; KEGG ko04360 Axon guidance): 2.905; ListHits (tobacco roots; KEGG ko04360 Axon guidance): 6; Enrichment_score (tobacco roots; [57]): 2.242; ListHits (tobacco roots; [57]): 3; Enrichment_score (tobacco roots; [58]): 2.242; ListHits (tobacco roots; [58]): 3; Enrichment_score (tobacco roots; [59]): 9.13; ListHits (tobacco roots; [59]): 3; Enrichment_score (tobacco roots; [60]): 1.285; ListHits (tobacco roots; [60]): 13; Enrichment_score (tobacco roots; [61]): 2.412; ListHits (tobacco roots; [61]): 3; Enrichment_score (tobacco roots; [62]): 2.905; ListHits (tobacco roots; [62]): 3; Enrichment_score (tobacco roots; [63]): 2.204; ListHits (tobacco roots; [63]): 3; Enrichment_score (tobacco roots; [64]): 1.266; ListHits (tobacco roots; [64]): 3; Enrichment_score (tobacco roots; [65]): 1.66; ListHits (tobacco roots; [65]): 3; Enrichment_score (tobacco roots; [66]): 1.014; ListHits (tobacco roots; [66]): 1; Enrichment_score (tobacco roots; [67]): 1.982; ListHits (tobacco roots; [67]): 4; Enrichment_score (tobacco roots; KEGG ko04727 GABAergic synapse): 1.8; ListHits (tobacco roots; KEGG ko04727 GABAergic synapse): 3; Enrichment_score (tobacco roots; [68]): 1.244; ListHits (tobacco roots; [68]): 4; Enrichment_score (tobacco roots; [69]): 3.4085; ListHits (tobacco roots; [69]): 6; Enrichment_score (tobacco roots; [70]): 1.746; ListHits (tobacco roots; [70]): 5; Enrichment_score (tobacco roots; [71]): 1.2104; ListHits (tobacco roots; [71]): 5; Enrichment_score (tobacco roots; KEGG ko04924 Renin secretion): 2.282; ListHits (tobacco roots; KEGG ko04924 Renin secretion): 3; Enrichment_score (tobacco roots; [72]): 11.3617; ListHits (tobacco roots; [72]): 4; Enrichment_score (tobacco roots; [73]): 3.551; ListHits (tobacco roots; [73]): 1; Enrichment_score (tobacco roots; KEGG ko04976 Bile secretion): 2.324; ListHits (tobacco roots; KEGG ko04976 Bile secretion): 3; Expression levels of growth-related genes in tobacco roots (tobacco roots; RNA-seq, GO growth, vs DMSO): differentially elevated the expression levels of most growth‐related genes; Expression levels of RBOHs, MYB44, TGA2, WRKY19, EFR, FLS2, PR1 and PDF1.4 in tobacco roots (tobacco roots; RNA-seq, vs DMSO): significantly increased the expression levels; Antioxidant genes (GO antioxidant activity) up-regulated (tobacco roots; [74]): 60 of 61; Immune genes (GO immune system process) up-regulated (tobacco roots; [74]): 70 of 82; Environmental adaptation-related genes (KEGG) up-regulated (tobacco roots; tobacco roots, coregulated genes, vs DMSO): 22 of 29; Kd (FER‐CD): 2.69 µM; Growth (biomass) of tobacco shoots and roots (tobacco): significantly improved the growth of tobacco shoots and roots
